{
  "source": "patent US20220288004A1",
  "about": "“TREATMENT AND PREVENTION OF AGING RELATED-DISEASE AND/OR AGING BY THE INHIBITION OF SPHINGOLIPIDS” (ECOLE POLYTECHNIQUE FEDERALE DE LAUSANNE (EPFL), priority 2019, published 2022)",
  "type_in_all_cases": "in vivo, mouse",
  "key": {"aged C57Bl/6JRj mice [1]": {"system": "aged C57Bl/6JRj mice", "assay": "Transplantation of MuSCs from myriocin treated donors into cardiotoxin-injured aged C57Bl/6JRj recipients", "excerpt": "Decline in tissue regenerative potential is a major hallmark of mammalian aging, including skeletal muscle. It was next asked the question whether myriocin treatment induces functional improvement of MuSCs, boosting their regenerative capacity. MuSCs from aged mice treated or untreated with myriocin for 5 months were isolated, and transplanted into tibialis anterior (TA) muscles of recipient mice. The recipient mice were either aged (20-month-old) C57Bl/6JRj or aged (1-year-old) mdx mice, a mouse model of Duchenne muscular dystrophy lacking dystrophin protein (FIG. 4a). Before MuSC transplantation, injury was induced by cardiotoxin injection to TA of all recipient mice. […] At both 7 and 14 days after transplantation the inflammatory area was also smaller (FIG. 12a-b) in mdx recipients of MuSCs isolated from myriocin treated mice. […] Thus, transplantation of MuSCs derived from myriocin treated donors induce major morphological improvements following cardiotoxin-induced muscle injury.\nTo test whether the functional improvement of MuSCs upon myriocin treatment also translates into better muscle function of recipient mice, tests of muscle function were performed before and 7 days after MuSC transplantation.\n(§1) Endurance running test. The exercise regimen on a treadmill commenced at a speed of 9 cm/s. As the mice were aged, an inclination of 0 degrees was used. Mice were considered to be exhausted, and removed from the treadmill if they received 7 or more shocks (0.2 mA) per minute for two consecutive minutes. The distance traveled and time before exhaustion were registered as maximal running distance and time.\n(§2) Grip strength. Muscle strength was assessed by grip strength test. The grip strength of each mouse was measured on a pulldown grid assembly connected to a grip strength meter (Columbus Instruments). The mouse was drawn along a straight line parallel to the grip, providing peak force. The experiment was repeated three times, and the highest value was included in the analysis.\n(§3) Rotarod test. The rotarod test measures muscle strength, coordination, and endurance. Mice were left undisturbed in the room for 30 min. The speed of the rotating cylinder (rotarod) increased from 0 to 40 rpm in 5 min. Each mouse had 3 trials per day for 3 consecutive days. The latency and speed the mouse reached it passive rotation or fall from the rotor was recorded, and the latency and speed of the best trial of the second day is presented.\nCardiotoxin-induced muscle damage and MuSC transplantation. MuSCs were transplanted from donor mice to recipient mice. The donor mice were aged male C57Bl/6JRj mice, whose treatment with myriocin was started at the age of 18 months. The recipient mice were either aged (18-month-old) male C57Bl/6JRj mice or 1-year-old male mdx mice. 50 μL of 20 μM Naje Mossambica mossambica cardiotoxin (Sigma) was injected intramuscularly into the tibialis anterior (TA) muscle of recipient mice before transplantation. 24 h after CTX injection, equal number (1500) of freshly isolated MuSCs from donor mice were injected intramuscularly into the TA muscle. Recipient mice were sacrificed at 7 and 14 days after transplantation.\nHistology. TA muscles were harvested from anesthetized mice, and immediately embedded in Thermo Scientific™ Shandon™ Cryomatrix™ and frozen in isopentane, cooled in liquid nitrogen, for 1 min before being transferred to dry ice and stored at −80° C. 8 μm cryosections were incubated in 4% PFA for 15 min, washed three times for 10 min with PBS, incubated for antigen retrieval in pH 6.0 citrate buffer for 10 min at 95° C. (for PAX7 antibody), counterstained with DAPI, laminin (1:200, Sigma), PAX7 (1:200, DSHB, University of Iowa), dystrophin (1:100, Spring Bioscience) or eMyHC (1:50, DSHB, University of Iowa), coupled with Alexa-488 or Alexa-568 fluorochromes (Life Technology) and mounted with Dako Mounting Medium. Microscopy images of fluorescence from muscle fibers were analyzed using the ImageJ software. […]"}, "mdx mice": {"system": "mdx mice", "assay": "Myriocin treatment of mdx mice (Duchenne muscular dystrophy model)", "protocol": "Next the activity of sphingolipid synthesis was inhibited in a mouse model of Duchenne muscular dystrophy. Mdx, a dystrophin deficient mouse model, was treated with myriocin (0.4 mg/kg/3 times a week intraperitoneally) for 2 months. […] Furthermore, after downhill running, plasma levels of creatine kinase (CK) were lower in myriocin treated mice compared to controls (FIG. 8f).\nas §1, §2, §3"}, "aged C57Bl/6JRj mice [2]": {"system": "aged C57Bl/6JRj mice", "assay": "Muscle function tests (treadmill, aerobic capacity, grip strength, rotarod, crossbar) in aged mice", "details": "myriocin 5 months vs DMSO", "protocol": "To examine whether a causal relationship could underlie the correlation between SphPC1 and muscle mass and function, it was tested whether inhibition of sphingolipid de novo biosynthesis pathway could protect against age-related muscle dysfunction. Aged (18-month-old) C57Bl/6JRj mice were treated for 5 months on chow diet with myriocin, a specific inhibitor of SPT, the first and rate-limiting enzyme of the sphingolipid de novo synthesis pathway, and whose expression in skeletal muscle was negatively correlated with muscular fitness in BXDs.\nAnimals. Young (2-month-old) and aged (18-month-old) C57Bl/6JRj mice were purchased from Janvier Labs. EchoMRI measuring the fat and lean body mass, were measured before and after the treatment. The dose of myriocin was 0.4 mg/kg/3 times a week. Myriocin (Enzo Life Sciences, Farmingdale, N.Y.) was first dissolved in DMSO which was then mixed with PBS so that each mouse received 1.5 μL DMSO per injection. Animals were fed on a standard chow diet. All animals were housed in micro-isolator cages in a room illuminated from 7:00 AM to 7:00 PM with ad libitum access to diet and water. All the animal experiments are authorized by animal license 2890.1 and 3341 in Canton of Vaud, Switzerland.\nas §1, §2, §3\nCrossbar test. Crossbar test assesses active balance through the ability to balance while walking along an elevated beam to reach a dark end side where they are able hide. Since all the mice were easily able to cross a squared (3 cm) beam, and a circular beam of diameter 1.5 cm was too difficult to them, the latency was recorded to cross a circular beam of 3 cm. The mice were trained for one day before the actual trial was recorded, and the average of the latency of three trials per mouse is presented."}, "[3]": {"details": "aged C57Bl/6JRj recipients of MuSCs from myriocin treated donors, 7 days"}, "[4]": {"details": "aged recipients of MuSCs from myriocin treated mice, 7 days after transplantation, change relative to baseline"}, "[5]": {"details": "myriocin 0.4 mg/kg 3 times a week intraperitoneally, 2 months"}},
  "note": "Entries after “also recorded” stand apart in the source; their conditions may differ.",
  "data": [
    {"smiles": "CCCCCCC(=O)CCCCCCC=CCC(O)C(O)C(N)(CO)C(=O)O", "note": "(stereo not shown) [myriocin, 2-Amino-3,4-dihydroxy-2-(hydroxymethyl)-14-oxoicos-6-enoic acid]", "values": [
      {"measurement": "inflammatory area of TA", "setting": "aged C57Bl/6JRj mice [1]; aged C57Bl/6JRj recipients of MuSCs from myriocin treated donors, 7 and 14 days after injury", "result": "smaller"},
      {"measurement": "count of PAX7+ cells per field and per section", "setting": "aged C57Bl/6JRj mice [1]; [3]", "result": "increased count"},
      {"measurement": "embryonic myosin heavy chain (eMyHC) positive area", "setting": "aged C57Bl/6JRj mice [1]; [3]", "result": "higher"},
      {"measurement": "exercise capacity (maximal running distance)", "setting": "aged C57Bl/6JRj mice [1]; [4]", "result": "improved"},
      {"measurement": "grip strength", "setting": "aged C57Bl/6JRj mice [1]; [4]", "result": "improved"},
      {"measurement": "latency in rotarod test", "setting": "aged C57Bl/6JRj mice [1]; [4]", "result": "increased latency"},
      {"measurement": "plasma levels of creatine kinase (CK)", "setting": "mdx mice; after downhill running, myriocin 2 months vs controls", "result": "lower"},
      {"measurement": "grip strength", "setting": "mdx mice; [5]", "result": "improved"},
      {"measurement": "performance in rotarod test", "setting": "mdx mice; [5]", "result": "improved performance"},
      {"measurement": "performance in uphill running test", "setting": "mdx mice; [5]", "result": "improved performance"},
      {"measurement": "aerobic capacity (maximal oxygen consumption)", "setting": "aged C57Bl/6JRj mice [2]", "result": "improved; also recorded: increased"},
      {"measurement": "crossing of a beam", "setting": "aged C57Bl/6JRj mice [2]", "result": "faster crossing"},
      {"measurement": "grip strength", "setting": "aged C57Bl/6JRj mice [2]", "result": "improved; also recorded: increased"},
      {"measurement": "performance in the rotarod test", "setting": "aged C57Bl/6JRj mice [2]", "result": "improved performance"},
      {"measurement": "running distance and time on a treadmill", "setting": "aged C57Bl/6JRj mice [2]", "result": "increased; also recorded: improved performance"},
      {"measurement": "speed reached before falling off the rotarod", "setting": "aged C57Bl/6JRj mice [2]", "result": "higher speed"}
    ]}
  ]
}
